{"source": "patent US5260060A", "about": "“Fibrinolytic enzymes” (priority 1991, dated 1993)", "key": {"[1]": {"target": "Accfib (Agkistrodon contortrix contortrix, UniProt P28891)", "sequence (P28891 whole entry, looked up)": "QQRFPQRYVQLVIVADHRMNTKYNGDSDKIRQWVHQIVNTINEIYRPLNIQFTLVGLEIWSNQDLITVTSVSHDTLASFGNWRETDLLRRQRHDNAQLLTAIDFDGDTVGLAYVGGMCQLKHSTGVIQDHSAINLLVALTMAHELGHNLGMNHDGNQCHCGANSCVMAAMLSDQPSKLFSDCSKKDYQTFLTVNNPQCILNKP", "assay": "biochemical"}, "[2]": {"target": "T1, thermolysin (Bacillus thermoproteolyticus, UniProt P00800)", "T1 sequence (P00800 233-548)": "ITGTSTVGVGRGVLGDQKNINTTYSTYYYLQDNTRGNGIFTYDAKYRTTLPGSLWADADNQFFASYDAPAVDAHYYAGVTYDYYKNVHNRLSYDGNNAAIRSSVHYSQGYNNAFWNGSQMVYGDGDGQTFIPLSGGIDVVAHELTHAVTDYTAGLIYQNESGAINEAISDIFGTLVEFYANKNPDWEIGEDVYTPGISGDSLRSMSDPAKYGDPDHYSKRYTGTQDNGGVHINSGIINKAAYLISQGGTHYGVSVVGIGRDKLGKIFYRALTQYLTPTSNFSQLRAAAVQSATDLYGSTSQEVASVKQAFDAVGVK", "conditions": "cited from earlier work"}}}
{"molecule": "CC(C)CC(C(=O)NO)C(=O)N[C@@H](C)C(=O)NCC(N)=O", "note": "(stereo partly drawn) [Zincov, 2-(N-hydroxycarboxamido)-4-methylpentanoyl-L-alanyl-glycine amide]", "values": [{"measurement": "Ki", "setting": "[1]", "value": 16, "unit": "mM"}, {"measurement": "Ki", "setting": "[2]", "value": 0.00048, "unit": "mM"}]}
